16 compounds from US5059602A, “4-substituted dihydropyrido(4,3-d)pyrimidines as analgesics and topical antiinflammatory agents for the treatment of skin disorders” (Hoechst-Roussel Pharmaceuticals Inc., priority 1990, dated 1991) can be followed below.

The structures appear in SMILES notation. Structures can show the parent of a compound that is named as a salt. Where two headings read alike, the source gives them in different places.

In experiment [1] the test system is 2-phenyl-1,4-benzoquinone-induced writhing. The experiment can be described thus: 2-phenyl-1,4-benzoquinone-induced writhing test (PQW). The format is in vivo, mice. As to conditions: Mus musculus, sc, read-out: PQW % Inhibition of writhing. (An intraperitoneal irritant provokes the stretching counted in writhing tests.)
For experiment [2], the system named is ear edema induced by topical application of TPA (phorbol 12-myristate acetate). As to the kind of experiment: TPA-Induced Ear Edema (TPAEE). To be noted: for change in vivo at 10 µg/ear: 5 h, read-out: TPAEE. It is filed as in vivo, Female Swiss Webster mice. The method, then: TPA-Induced Ear Edema (TPAEE)
The purpose of this assay was to determine the ability of a topically-applied compound to prevent ear edema induced by topical application of TPA (phorbol 12-myristate acetate). Female Swiss Webster mice topically received TPA (10 μg/ear) on the right ear and vehicle on the left ear. The test compound (10 μg/ear) was applied to both ears. After five hours, the animals were sacrificed and an ear punch (4 mm) was taken from each ear. The difference in right and left ear punch weights for each animal was determined to assess activity. […] See Young, J. M. et al., J. Invest. Dermatol., 80 (1983), pp. 48-52.

The subject of experiment [3] is naja naja (snake venom) phospholipase A2 -induced paw edema. As to the kind of experiment: Phospholipase A2-induced Paw Edema (PIPE). The format is in vivo, male Wistar rats. To be noted: 0.1M; rat hindpaw, subplantar injection with PLA2 (3 units/paw), 2 hours. The method, then: Phospholipase A2 -induced Paw Edema (PIPE)
The ability of compounds to prevent naja naja (snake venom) phospholipase A2 -induced paw edema in male Wistar rats (100-125 g) was measured. PLA2 (3 units/paw) alone or with 0.1M of the test compound was injected in the subplantar region of the rat left hindpaw. Immediately subsequent to the injection and at two hours post administration the paw was immersed in a mercury bath, and paw displacement was measured on a recorder via a transducer. […] See Giessler, A. J. et al., Agents and Actions, Vol. 10, Trends in Inflammation Research (1981), p. 195.

Experiment [4] concerns mouse ear edema induced by topical application of arachidonic acid. The experiment can be described thus: Arachidonic Acid-Induced Ear Edema (AAEE). It is filed as in vivo, Female Swiss Webster mice. To be noted: for AAEE: 1.0 mg (per ear), mouse. The method, then:
Arachidonic Acid-Induced Ear Edema (AAEE)
The purpose of this assay was to determine the ability of a topically-applied compound to prevent mouse ear edema induced by topical application of arachidonic acid. Female Swiss Webster mice topically received vehicle or test compound (1.0 mg/ear) on both ears (10 μl on outer and inner ears). After 30 minutes, the right ear of all groups received arachidonic acid (4 mg/ear) and the left ear received vehicle alone. After an additional 1 hour, the mice were sacrificed and an ear punch (4 mm) was taken from each ear. The difference in right and left ear punch weights for each animal was determined to assess activity. […] See Young, J. M. et al., Invest. Dermatol., 80, (1983), pp 48-52.

Where [5] appears, read: 10 μg (per ear), mouse, five hours.

In the case of `CC1c2cnccc2N=CN1Cc1ccccc1` (centres unmarked) [3,4-Dihydro-4-methyl-3-phenylmethylpyrido[4,3-d]pyrimidine dihydrochloride], the inhibition in vivo at 20 mg/kg in experiment [1] amounted to 85%. In experiment [2] (Mus musculus), the change in vivo at 10 µg/ear is -55%.

Consider `Cl.Cl.Nc1ccncc1CNCc1ccccc1` [3-[(Phenylmethylamino)methyl]-4-pyridinamine dihydrochloride], for which, in experiment [3], the “PIPE (difference in edema vs. control)” value is -51%.

With `CC(NCc1ccccc1)c1cnccc1N` (stereo not drawn) [4-Amino-α-methyl-N-(phenylmethyl)-3-pyridinemethanamine], in experiment [1] (20 mg/kg, s.c.), the inhibition in vivo at 20 mg/kg was 58%. In addition, in experiment [2] (setting [5]), the change in vivo at 10 µg/ear was -45%.

Turning to `C1=NC(C2CCCCC2)c2cnccc2N1.Cl.Cl` (centres unmarked) [4-Cyclohexyl-1,4-dihydropyrido[4,3-d]pyrimidine dihydrochloride], in experiment [3], the “PIPE (difference in edema vs. control)” value is -44%.

As for `Nc1ccncc1C(N)c1ccccc1` (centres unmarked) [(4-Amino-3-pyridinyl)benzenemethanamine dihydrochloride], the “PIPE (difference in edema vs. control)” value in experiment [3] is listed as -66%.

As for `Cl.Cl.Nc1ccncc1C(N)C1CCCCC1` (centres unmarked) [(4-Amino-3-pyridinyl)cyclohexylmethanamine dihydrochloride], in experiment [3], the “PIPE (difference in edema vs. control)” value is on record as -68%. The AAEE in experiment [4] is listed as -28%. Further, the change in vivo at 10 µg/ear in experiment [2] (setting [5]) is -36%.

Regarding `Nc1ccncc1C(=O)C1CCCCC1` [(4-Amino-3-pyridinyl)cyclohexylmethanone hydrochloride], the change in vivo at 10 µg/ear in experiment [2] (setting [5]) is -53%.

For the compound `Nc1ccncc1C(=NO)C1CCCCC1` [(4-Amino-3-pyridinyl)cyclohexylmethanone oxime hydrochloride], the change in vivo at 10 µg/ear in experiment [2] (setting [5]) was -34%.

Take `Nc1ccncc1C(=NO)c1ccccc1` [(4-Amino-3-pyridinyl)phenylmethanone oxime hydrochloride]: the change in vivo at 10 µg/ear in experiment [2] (setting [5]) was -32%.

Consider `CC(=O)c1cnccc1NC(=O)C(C)(C)C` [N-(3-Acetyl-4-pyridinyl)-2,2-dimethylpropanamide], for which the inhibition in vivo at 20 mg/kg in experiment [1] (20 mg/kg, s.c.) was 34%.

Regarding `CC(NCc1ccccc1)c1cnccc1NC(=O)C(C)(C)C.Cl.Cl` (centres unmarked) [N-[3-[1-(Phenylmethylamino)ethyl]-4-pyridinyl]-2,2-dimethylpropionamide dihydrochloride], the AAEE in experiment [4] is on record as -44%.

Take `CCCCNCc1cnccc1NC(=O)C(C)(C)C.Cl.Cl` [N-[3-[(Butylamino)methyl]-4-pyridinyl]-2,2-dimethylpropanamide dihydrochloride]: the AAEE in experiment [4] is -45%.

As for `C[C@]12CCC(=O)C=C1CC[C@@H]1[C@@H]2[C@@H](O)C[C@@]2(C)[C@H]1CC[C@]2(O)C(=O)CO` [hydrocortisone, reference compound], the ED50 in experiment [2] (standard, TPAEE) is reported as 47 μg/ear.

Compound `COc1ccc2c(c1)c(CC(=O)O)c(C)n2C(=O)c1ccc(Cl)cc1` [indomethacin, reference compound] registered an ED50 in experiment [4] (standard, AAEE) of 1.5 mg/ear.

As for `CC(C)(C)C(=O)Nc1ccncc1C(O)C1CCCCC1` (stereo not drawn) [α-Cyclohexyl-α-[4-(2,2-dimethylpropionamido)-3-pyridinyl]-methanol], the “PIPE (difference in edema vs. control)” value in experiment [3] is given as -35%. Besides, in experiment [1] (20 mg/kg, s.c.), the inhibition in vivo at 20 mg/kg was 32%. The AAEE in experiment [4] was -52%. For the same compound, in experiment [2] (setting [5]), the change in vivo at 10 µg/ear is -55%.

For the compound `CC(O)c1cnccc1NC(=O)C(C)(C)C` (stereo not drawn) [α-Methyl-α-[4-(2,2-dimethylpropionamido)-3-pyridinyl]-methanol], the change in vivo at 10 µg/ear in experiment [2] (setting [5]) was -46%.
